Read-outs that look alike come from different tables or passages of the source.
Assays:
[1] = system: B. subtilis wild-type cells; experiment: Biofilm formation on solid biofilm medium, B. subtilis; type: cell-based, Bacillus subtilis; conditions: 1 μl of cells mixed with 1 μl (1 mM) polyamine
Method: B. subtilis wild-type cells were grown to a mid-logarithmic phase and 1 μl of cells was mixed with 1 μl (1 mM) of each polyamine. The mixture was plated on solid biofilm medium.
B. subtilis wild-type cells were grown to a mid-logarithmic phase and 1 μl of cells was either mixed with PBS (18C) or mixed with 1 μl (1 mM) of each polyamine (18D). The mixture was plated on solid biofilm medium. “3*” refers to 1,5,9-Triazacyclododecane.

[2] = system: P. aeriginosa strain PA14; experiment: Biofilm formation by Pseudomonas on solid M63 medium; type: cell-based, Pseudomonas aeruginosa; conditions: 1 μl of cells mixed with 1 μl (10 mM) polyamine
Method: The effect of polyamines on biofilm formation by Pseudomonas was examined. P. aeriginosa strain PA14 were grown to a mid-logarithmic phase and 1 μl of cells was mixed with 1 μl (10 mM) of each polyamine. The mixture was plated on solid M63 medium.

E. coli strain MC4100 = experiment: Submerged biofilm formation by E. coli, crystal violet staining; type: cell-based, Escherichia coli; conditions: compounds tested at 500 μM
Method: (§1) The compounds were tested at 500 μM. Biofilm formation was visualized by crystal violet staining of submerged biofilms.
(§2) Whether polyamines might prevent biofilm formation by other bacteria that produce an exopolysaccharide matrix was examined. […] The compounds were tested at 500 μM. Biofilm formation was visualized by crystal violet staining of submerged biofilms.
(§3) In testing E. coli, the biofilm-proficient strain MC4100 was selected because a major component of exopolysacchride is colanic acid (Danese et al., 2000; Price and Raivio, 2009).

[3] = system: exopolysaccharide of S. aureus cells; experiment: Fluorescence microscopy of exopolysaccharide staining, S. aureus; type: cell-based, Staphylococcus aureus
[4] = system: exopolysaccharide of E. coli cells; experiment: Fluorescence microscopy of exopolysaccharide staining, E. coli; type: cell-based, Escherichia coli
Text: as §3

[5] = system: B. subtilis exopolysaccharide mutant (ΔepsH; DS76) and TasA mutant (ΔtasA; FC55); experiment: Pellicle formation by matrix mutants in presence of norspermidine; type: cell-based, Bacillus subtilis; conditions: 25 μM norspermidine, 3-day-old cultures
Text: It was observed that the residual pellicle (wispy fragments of floating material with some structure) produced in the presence of norspermidine resembled pellicles seen for a mutant blocked in exopolysaccharide production but not those seen (thin, featureless pellicles) for a mutant blocked in amyloid-fiber production. […] In other words, the effect of norspermidine was synergistic with that of a mutation blocking fiber formation but not with a mutant blocked in exopolysaccharide production (FIG. 4B).

S. aureus strain SCO1 = experiment: Submerged biofilm formation by S. aureus, crystal violet staining; type: cell-based, Staphylococcus aureus; conditions: for inhibition of S. aureus biofilm formation: TSB with NaCl (3%) and Glucose (0.5%), norspermidine 10 μM, norspermine 100 μM; for inhibition of S. aureus submerged biofilm formation, compound screen: compounds tested at 500 μM
Method: as §1, §2
The medium was applied with norspermidine (10 μM), norspermine (100 μM) or spermine (500 μM). Planktonic cells were removerd (19A-D). Wells were washed once, and incubated with Crystal Violet (0.1%) for 15 mins. Wells were washed twice in DDW (19E-H).
The effect of certain polyamines combined with biofilm-inhibiting D-amino acids in Staphylococcus was examined. S. aureus strain SC-01 was grown to a mid-logarithmic phase and diluted 1:1000 into a 12 wells plate in a TSB medium applied with NaCl (3%) and Glucose (0.5%). The medium was applied with either norspermidine or D-tyrosine or both as indicated below each panel. Planktonic cells were removerd Wells were washed once, and incubated with Crystal Violet (0.1%) for 15 mins. Wells were washed twice in DDW.

[6] = system: Proteus mirabilis strain BB2000; experiment: Proteus mirabilis biofilm formation in polystyrene wells, crystal violet staining; type: cell-based; conditions: 1 mM, M9 + glucose, 48 hours at 30° C., OD 595 nm
Method: To examine the effects of polyamines on biofilm formation, wells were initially treated with water (no treatment), 1 mM norspermidine, and 1 mM norspermine in 3 ml M9 + glucose before inoculation with P. mirabilis. Biofilms were permitted to grow for 48 hours at 30° C. without shaking The amount of biofilm formed was assessed with the standard assay of crystal violet staining (O'Toole G et al., Biofilm formation as microbial development, Annu Rev. Microbiol. (2000) 54:49-79); supernatant was removed from the wells and crystal violet (at […]) was then incubated in each well for 15 minutes at room temperature, followed by removal of the crystal violet from the wells and a subsequent washes with water. Any crystal violet attached the wells was next solubilized with 95% ethanol for 15 minutes at room temperature, and the subsequent optical density at 595 nm in each well was measured with a multiplate reader.

[7] = system: B. subtilis strain NCBI3610; experiment: Biofilm (pellicle) inhibition assay, B. subtilis in liquid biofilm-inducing medium; type: cell-based, Bacillus subtilis; conditions: for minimal effective concentration: Bacillus subtilis; for inhibition of pellicle formation at 50 μM: cells diluted 1:1000 in biofilm media, final concentration 50 μM
Method: Bacillus subtilis strains PY79, 3610 and their derivatives were grown in Luria-Bertani (LB) medium at 37° C. or MSgg medium (1) at 23° C. Solid media contained 1.5% Bacto agar. When appropriate, antibiotics were added at the following concentrations for growth of B. subtilis: 10 μg per ml of tetracycline, and 5 μg per ml of erythromycin, 500 μg per ml of spectinomycin.
B. subtilis strain NCBI3610 was grown at 22° C. in 12-well plates in liquid biofilm-inducing medium for 3 or 8 days. Conditioned medium (500 ml) from an 8-day-old culture was concentrated on the C-18 column and eluted step-wise with methanol. […]
Pellicle formation of strain NCBI 3610 was tested in the presence of the indicated concentrations of norspermidine (FIG. 1D) or spermidine (FIG. 1E).
To identify features of norspermidine important for its biofilm disassembly activity, we tested a library of polyamines in our biofilm inhibition assay (FIGS. 9A, 9B, 10 and Table 2).
The effect of polyamines on pellicle formation by B. subtilis was examined. B. subtilis wild-type cells were grown to a mid-logarithmic phase and diluted 1:1000 in biofilm media applied with each polyamine to the final concentration of 50 μM.
The effect of cyclic polyamines on biofilm formation by B. subtilis was examined. B. subtilis wild-type cells were grown to a mid-logarithmic phase and diluted 1:1000 in biofilm media (18A) or in a medium applied with cyclic compound 1,5,9-Triazacyclododecane to the final concentration of 50 μM (18B).

[8] = system: exopolysaccharide and TasA of B. subtilis NCBI 3610; experiment: Fluorescence microscopy of matrix components (concanavalin A-Texas Red, TasA-mCherry), B. subtilis; type: cell-based, Bacillus subtilis
Text: The cells were washed in PBS and stained for exopolysaccharide with a conjugate of concanavalin A with Texas-Red.
[…] Cells were washed in PBS, and visualized by fluorescence microscopy.
To investigate further, exopolysaccharide was visualized by fluorescence microscopy using a conjugate of the carbohydrate-binding protein concanavalin A with Texas Red (FIG. 5) (McSwain et al., 2005). As evidence of specificity, the conjugate decorated wild-type cells but not cells from a mutant (Aeps) blocked in exopolysaccharide production (FIG. 6A). Indeed, at an exposure at which concanavalin A staining with the wild type strain gave an extremely bright fluorescent signal, little or no signal could be detected for the Aeps mutant, except at long exposures and enhanced brightness (FIG. 6A). Next, we investigated the effects of norspermidine and spermidine. […] Therefore, the difference in the staining was evidently due to differential levels of cell-associated exopolysaccharide. […] Thus, while not being bound to any theory, it is believed that norspermidine disrupts the matrix and by targeting exopolysaccharide.

[9] = system: B. subtilis NCBI 3610 / strain FC5 (PepsA-lacZ); experiment: Growth and matrix operon expression in shaking MSgg medium; type: cell-based, Bacillus subtilis; conditions: 100 μM, MSgg medium with shaking
Method: Strain FC5 (carrying PepsA-lacZ) was grown in MSgg medium containing norspermidine (100 μM) with shaking or in untreated medium as control (NT).
NCBI 3610 was grown in MSgg medium applied with norspermidine (100 μM) with shaking or in untreated medium served as a control (NT). […] Therefore, whether norspermidine interacts directly with the exopolysaccharide was investigated. To attempt to detect such an interaction, dynamic light scattering was used. Dynamic scattering is a standard procedure for measuring the average radius of polymers in which a laser beam is transmitted through a sample containing polymers in solution (Berne, 1976; Orgad et al., 2011; Vinayahan et al., 2010).

B. subtilis pellicles = experiment: Disassembly of pre-formed pellicles, B. subtilis; type: cell-based, Bacillus subtilis; conditions: 250 μM applied at day 2, additional 24 hrs
Method: After incubation for the indicated times, pellicle material and the medium were separated and each brought to a volume of 3 ml. After mild sonication, the OD600 was determined for each sample. The % of disassembly represents the OD600 of the medium as a percent of the sum of the OD600 of the medium and the OD600 of the pellicle. […] Thus, D-amino acids and norspermidine act synergistically in preventing biofilm formation and triggering the disassembly of mature biofilms.
Whether polyamines could trigger disassembly of biofilms formed by B. subtilis was examined. B. subtilis wild-type cells grown in liquid biofilm medium. Cells were grown to mid-logarithmic phase and diluted 1:1000 in liquid biofilm media. At day 2, pre-formed pellicles were applied with either PBS (A) or norspermine (250 μM) (B). Pellicles were incubated for additional 24 hrs.

Q: Which results are given for `NCCCNCCCN` [Molecule 1, N-(3-aminopropyl)propane-1,3-diamine]?
A: inhibition of biofilm formation on solid biofilm medium [1]: inhibit biofilm formation; inhibition of Pseudomonas biofilm formation [2]: inhibit biofilm formation; inhibition of E. coli submerged biofilm formation (E. coli strain MC4100): inhibited the formation of submerged biofilms; staining of exopolysaccharide, S. aureus cells [3]: markedly diminished staining of exopolysaccharide; staining of exopolysaccharide, E. coli cells [4]: markedly diminished staining of exopolysaccharide; effect on pellicle formation by amyloid fiber (TasA) mutant [5]: abolished pellicle formation; effect on residual pellicle of exopolysaccharide mutant [5]: little effect on the residual pellicle; inhibition of S. aureus biofilm formation (S. aureus strain SCO1): inhibit biofilm formation; inhibition of S. aureus submerged biofilm formation, compound screen (S. aureus strain SCO1): inhibited the formation of submerged biofilms; reduction of Proteus mirabilis biofilm formation [6]: sufficient to reduce biofilm formation; minimal effective concentration ([7]; NCBI3610, read-out: MBIC- Minimal Biofilm Inhibitory Concentration): 25 to 50 µM; concentration at which biofilm formation was inhibited ([7]; authentic norspermidine, pellicle formation NCBI3610): 25 µM; inhibition of pellicle formation at 50 μM [7]: inhibit biofilm formation; pattern of concanavalin A-Texas Red staining of exopolysaccharide ([8]; norspermidine 25 μM, spermidine 1 mM): disrupted the relatively uniform, cell-associated pattern of staining; effect on protein component of the matrix (TasA-mCherry) ([8]; norspermidine 50 μM): little or no effect on the protein component of the matrix; cell growth [9]: not significantly inhibited

Q: `NCCCNCCCNCCCN` [Molecule 2, N′-[3-(3-aminopropylamino)propyl]propane-1,3-diamine] was tested. Which “inhibition of biofilm formation on solid biofilm medium” value [1] did it give?
A: Its value is “inhibit biofilm formation”.

Q: And the “disassembly of pre-formed pellicles” value (B. subtilis pellicles)?
A: Its value is “triggered disassembly of the pellicles”.

Q: And the “inhibition of Pseudomonas biofilm formation” value [2]?
A: The value was “inhibit biofilm formation”.

Q: What about the “inhibition of E. coli submerged biofilm formation” value (E. coli strain MC4100) of the same compound?
A: The value was “inhibited the formation of submerged biofilms”.

Q: And the “inhibition of S. aureus biofilm formation” value (S. aureus strain SCO1)?
A: Its value is “inhibit biofilm formation”.

Q: And the “inhibition of S. aureus submerged biofilm formation, compound screen” value (S. aureus strain SCO1)?
A: The value was “inhibited the formation of submerged biofilms”.

Q: What about the “reduction of Proteus mirabilis biofilm formation” value [6] of the same compound?
A: Its value is “sufficient to reduce biofilm formation”.

Q: And the minimal effective concentration ([7]; NCBI3610, B. subtilis biofilm inhibition assay, library of polyamines, read-out: MBIC- Minimal Biofilm Inhibitory Concentration)?
A: The minimal effective concentration was 200 µM.

Q: And the “inhibition of pellicle formation at 50 μM” value [7]?
A: The value was “inhibit biofilm formation”.

Q: And the “biofilm-inhibitory activity against B. subtilis” value ([7]; library of polyamines, structure-activity)?
A: Its value is “exhibited biofilm-inhibitory activity”.

From patent US20140056951A1, “METHODS AND COMPOSITIONS FOR TREATING BIOFILMS” (PRESIDENT AND FELLOWS OF HARVARD COLLEGE, priority 2011, published 2014)
